Test results from ChEMBL document CHEMBL3862022, “Synthesis and biological evaluation of lovastatin-derived aliphatic hydroxamates that induce reactive oxygen species” (Bioorg Med Chem Lett, 2016).
pIC50: −log10 of the molar value. Activity calls are given as the source filed them. No cut-off for these calls is given here.

How the values were obtained:
[1] = Induction of reactive oxygen species in human MDA-MB-231 cells at 10 uM after 24 hrs by DCFH-DA probe-based flow cytometric method; type: physicochemical, cell-based; conditions: mda-mb-231, 24 h
[2] = Cytotoxicity against human PC3 cells assessed as growth inhibition after 48 hrs by SRB assay; type: functional, cell-based; conditions: PC-3, 48 h
[3] = Cytotoxicity against human MDA-MB-231 cells assessed as growth inhibition after 24 to 48 hrs by MTT assay; type: functional, cell-based
[4] = target: Serine-protein kinase ATM (Homo sapiens) (UniProt Q13315); assay: Induction of ATM phosphorylation in human MDA-MB-231 cells at 10 uM after 6 to 24 hrs by Western blot method; type: cell-based
MDA-MB-231 [5] = assay: Induction of apoptosis in human MDA-MB-231 cells assessed as PARP cleavage by flow cytometric method; type: functional, cell-based
[6] = Cytotoxicity against human IMR90 cells assessed as growth inhibition up to 40 uM after 24 to 48 hrs by MTT assay; type: toxicity, cell-based; conditions: imr-90
[7] = target: T1, Serine/threonine-protein kinase Chk1/2 (Homo sapiens) (UniProt O96017+O14757); assay: Induction of CHK1/2 phosphorylation in human MDA-MB-231 cells assessed as increase in p21 protein expression at 10 uM after 6 to 24 hrs by Western blot method; type: cell-based
[8] = Cell cycle arrest in human MDA-MB-231 cells assessed as accumulation at S phase at 32 uM after 6 to 12 hrs by propidium iodide staining-based flow cytometric method; type: functional
[9] = Cytotoxicity against human MCF7 cells assessed as growth inhibition after 24 to 48 hrs by MTT assay; type: functional, cell-based
[10] = target: T2, Serine/threonine-protein kinase Chk1 (Homo sapiens) (UniProt O14757); assay: Induction of CHK1 phosphorylation in human MDA-MB-231 cells at 10 uM after 6 to 24 hrs by Western blot method; type: cell-based
T2 sequence (whole entry): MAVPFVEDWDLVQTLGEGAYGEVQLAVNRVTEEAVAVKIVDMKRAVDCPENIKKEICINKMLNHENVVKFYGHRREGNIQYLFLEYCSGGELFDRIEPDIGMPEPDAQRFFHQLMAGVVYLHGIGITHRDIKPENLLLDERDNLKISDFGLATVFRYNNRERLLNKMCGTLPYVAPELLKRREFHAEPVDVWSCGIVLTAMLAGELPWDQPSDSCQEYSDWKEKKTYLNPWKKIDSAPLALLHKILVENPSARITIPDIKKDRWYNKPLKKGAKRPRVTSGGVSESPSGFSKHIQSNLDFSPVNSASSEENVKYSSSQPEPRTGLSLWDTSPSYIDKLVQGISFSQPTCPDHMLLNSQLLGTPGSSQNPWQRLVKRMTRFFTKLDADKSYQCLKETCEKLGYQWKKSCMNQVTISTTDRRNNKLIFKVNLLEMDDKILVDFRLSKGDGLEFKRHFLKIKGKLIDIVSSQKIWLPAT

MDA-MB-231 [11] = assay: Induction of DNA damage in human MDA-MB-231 cells assessed as phosphorylation of gammaH2AX at IC50 to 3 times IC50 after 48 hrs by flow cytometric analysis; type: functional, cell-based
[12] = target: Serine/threonine-protein kinase Chk2 (Homo sapiens) (UniProt O96017); assay: Induction of CHK2 phosphorylation in human MDA-MB-231 cells at 10 uM after 6 to 24 hrs by Western blot method; type: cell-based
[13] = target: T1, Serine/threonine-protein kinase Chk1/2 (Homo sapiens); assay: Induction of CHK1/2 phosphorylation in human MDA-MB-231 cells assessed as increase in p53 phosphorylation at 10 uM after 6 to 24 hrs by Western blot method; type: cell-based
MDA-MB-231 [14] = assay: Binding affinity to DNA minor groove in human MDA-MB-231 cells up to 100 uM after 20 mins by Hoechst 33342 staining-based fluorometric method; type: cell-based
[15] = Cytotoxicity against human T47D cells assessed as growth inhibition after 24 to 48 hrs by MTT assay; type: functional, cell-based
[16] = Induction of reactive oxygen species in human MDA-MB-231 cells at 30 uM after 24 hrs by DCFH-DA probe-based flow cytometric method; type: physicochemical, cell-based; conditions: mda-mb-231, 24 h

T1 sequence (O96017 whole entry, looked up, one chain of several): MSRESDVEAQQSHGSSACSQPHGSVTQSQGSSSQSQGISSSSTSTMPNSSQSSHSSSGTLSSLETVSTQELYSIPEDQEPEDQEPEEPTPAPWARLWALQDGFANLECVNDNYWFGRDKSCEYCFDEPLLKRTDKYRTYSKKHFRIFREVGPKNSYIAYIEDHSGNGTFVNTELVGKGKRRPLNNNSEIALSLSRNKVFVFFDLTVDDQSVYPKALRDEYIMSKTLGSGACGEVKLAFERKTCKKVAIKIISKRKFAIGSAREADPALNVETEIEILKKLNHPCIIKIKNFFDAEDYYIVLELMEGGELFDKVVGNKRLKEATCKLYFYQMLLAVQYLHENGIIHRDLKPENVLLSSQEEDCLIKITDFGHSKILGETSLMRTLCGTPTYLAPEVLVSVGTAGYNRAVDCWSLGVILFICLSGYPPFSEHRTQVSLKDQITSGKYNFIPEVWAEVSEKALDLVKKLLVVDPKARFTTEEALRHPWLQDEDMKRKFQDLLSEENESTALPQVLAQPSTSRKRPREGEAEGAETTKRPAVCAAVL
Serine-protein kinase ATM (Homo sapiens), sequence (Q13315 whole entry): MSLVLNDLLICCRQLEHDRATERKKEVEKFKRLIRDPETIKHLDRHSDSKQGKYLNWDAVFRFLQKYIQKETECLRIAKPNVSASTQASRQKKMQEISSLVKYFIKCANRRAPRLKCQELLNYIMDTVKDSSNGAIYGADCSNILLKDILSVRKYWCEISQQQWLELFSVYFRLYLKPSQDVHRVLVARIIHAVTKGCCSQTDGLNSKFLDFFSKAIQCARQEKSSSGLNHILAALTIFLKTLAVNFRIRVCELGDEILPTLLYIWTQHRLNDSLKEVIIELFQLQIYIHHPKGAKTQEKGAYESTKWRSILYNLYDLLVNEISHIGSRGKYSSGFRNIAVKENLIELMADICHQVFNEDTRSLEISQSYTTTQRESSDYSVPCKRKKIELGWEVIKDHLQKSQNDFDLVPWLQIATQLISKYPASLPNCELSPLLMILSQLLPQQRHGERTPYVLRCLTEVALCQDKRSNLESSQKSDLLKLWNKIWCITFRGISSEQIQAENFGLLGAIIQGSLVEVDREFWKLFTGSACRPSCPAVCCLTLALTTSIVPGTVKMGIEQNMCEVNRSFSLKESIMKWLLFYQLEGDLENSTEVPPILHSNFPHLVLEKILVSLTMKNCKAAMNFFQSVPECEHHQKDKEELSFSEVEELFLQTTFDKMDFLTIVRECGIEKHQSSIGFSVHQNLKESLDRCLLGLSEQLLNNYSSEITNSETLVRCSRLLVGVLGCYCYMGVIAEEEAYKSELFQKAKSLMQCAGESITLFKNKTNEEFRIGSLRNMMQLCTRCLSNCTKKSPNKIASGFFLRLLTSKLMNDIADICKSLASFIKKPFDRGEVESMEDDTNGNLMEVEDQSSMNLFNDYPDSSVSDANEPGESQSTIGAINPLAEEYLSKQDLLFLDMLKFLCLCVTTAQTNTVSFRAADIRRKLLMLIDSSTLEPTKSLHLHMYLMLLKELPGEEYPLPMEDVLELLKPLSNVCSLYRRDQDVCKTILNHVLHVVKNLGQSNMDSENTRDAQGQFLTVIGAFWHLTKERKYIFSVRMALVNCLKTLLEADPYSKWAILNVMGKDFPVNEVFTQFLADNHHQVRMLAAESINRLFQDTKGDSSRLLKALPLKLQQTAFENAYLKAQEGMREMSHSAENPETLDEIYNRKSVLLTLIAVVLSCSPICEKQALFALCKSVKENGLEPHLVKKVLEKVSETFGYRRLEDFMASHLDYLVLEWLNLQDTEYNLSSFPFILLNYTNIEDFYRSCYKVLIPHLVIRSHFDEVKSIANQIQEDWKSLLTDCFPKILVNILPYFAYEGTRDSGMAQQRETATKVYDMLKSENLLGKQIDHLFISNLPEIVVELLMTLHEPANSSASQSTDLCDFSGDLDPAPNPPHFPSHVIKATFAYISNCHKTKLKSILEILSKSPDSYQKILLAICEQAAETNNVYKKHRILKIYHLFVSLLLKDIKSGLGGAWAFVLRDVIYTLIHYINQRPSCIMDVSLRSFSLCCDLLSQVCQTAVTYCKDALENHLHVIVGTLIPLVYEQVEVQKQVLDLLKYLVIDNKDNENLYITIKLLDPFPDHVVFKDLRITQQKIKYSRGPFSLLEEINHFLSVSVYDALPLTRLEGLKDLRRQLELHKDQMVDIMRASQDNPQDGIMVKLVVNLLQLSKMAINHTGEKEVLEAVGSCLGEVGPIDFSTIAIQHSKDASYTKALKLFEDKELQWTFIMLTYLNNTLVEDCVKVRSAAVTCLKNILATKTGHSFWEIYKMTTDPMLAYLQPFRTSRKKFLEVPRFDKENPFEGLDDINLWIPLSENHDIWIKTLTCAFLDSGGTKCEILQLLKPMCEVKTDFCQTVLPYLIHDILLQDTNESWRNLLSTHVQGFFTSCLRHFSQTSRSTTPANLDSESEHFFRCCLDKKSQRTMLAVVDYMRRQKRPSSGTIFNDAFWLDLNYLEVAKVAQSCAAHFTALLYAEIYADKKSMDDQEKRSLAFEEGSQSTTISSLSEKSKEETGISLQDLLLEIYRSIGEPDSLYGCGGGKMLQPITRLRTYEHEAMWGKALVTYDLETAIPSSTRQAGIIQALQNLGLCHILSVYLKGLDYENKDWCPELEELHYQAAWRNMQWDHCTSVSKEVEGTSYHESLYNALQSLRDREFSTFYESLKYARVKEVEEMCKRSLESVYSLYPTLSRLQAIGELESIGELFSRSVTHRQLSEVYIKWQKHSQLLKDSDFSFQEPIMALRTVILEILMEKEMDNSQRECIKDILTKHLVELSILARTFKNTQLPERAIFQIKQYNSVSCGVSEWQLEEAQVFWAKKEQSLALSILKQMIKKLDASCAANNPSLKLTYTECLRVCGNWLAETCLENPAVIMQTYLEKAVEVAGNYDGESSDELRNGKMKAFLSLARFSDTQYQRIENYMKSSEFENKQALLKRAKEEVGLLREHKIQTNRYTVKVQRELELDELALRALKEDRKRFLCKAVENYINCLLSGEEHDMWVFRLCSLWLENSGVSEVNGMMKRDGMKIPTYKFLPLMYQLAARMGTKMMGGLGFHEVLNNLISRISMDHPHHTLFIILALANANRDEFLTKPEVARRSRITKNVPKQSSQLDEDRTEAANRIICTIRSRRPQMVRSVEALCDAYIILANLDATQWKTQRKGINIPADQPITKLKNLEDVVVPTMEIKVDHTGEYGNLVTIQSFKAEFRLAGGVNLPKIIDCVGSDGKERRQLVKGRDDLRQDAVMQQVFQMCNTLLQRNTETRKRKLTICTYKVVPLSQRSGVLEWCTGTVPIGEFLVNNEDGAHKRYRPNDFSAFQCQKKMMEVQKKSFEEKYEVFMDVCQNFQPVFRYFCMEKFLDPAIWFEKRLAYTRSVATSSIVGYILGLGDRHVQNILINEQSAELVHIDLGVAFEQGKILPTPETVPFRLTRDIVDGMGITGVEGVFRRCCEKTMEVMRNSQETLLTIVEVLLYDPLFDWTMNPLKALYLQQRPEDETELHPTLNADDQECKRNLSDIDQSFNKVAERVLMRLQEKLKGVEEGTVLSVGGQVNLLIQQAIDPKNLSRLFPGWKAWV
Serine/threonine-protein kinase Chk2 (Homo sapiens), sequence (O96017 whole entry): as the sequence (O96017 whole entry, looked up, one chain of several) above

| Structure (SMILES) | Activity [1] | pIC50 [2] | other results |
| --- | --- | --- | --- |
| CC[C@H](C)C(=O)O[C@H]1C[C@@H](C)C=C2C=C[C@H](C)[C@H](CC[C@@H](O)C[C@@H](CC(=O)NO)OC(=O)c3ccc(Cl)cc3)[C@H]21 | Active | 4.66 | – |
| CC[C@H](C)C(=O)O[C@H]1C[C@@H](C)C=C2C=C[C@H](C)[C@H](CC[C@@H](O)C[C@@H](CC(=O)NO)OC(=O)c3ccc([N+](=O)[O-])cc3)[C@H]21 | Active | 5.09 | – |
| CC[C@H](C)C(=O)O[C@H]1C[C@@H](C)C=C2C=C[C@H](C)[C@H](CC[C@@H](O)C[C@@H](CC(=O)NO)OC(=O)c3ccc4ccccc4c3)[C@H]21 | Active | 4.76 | – |
| CC[C@H](C)C(=O)O[C@H]1C[C@@H](C)C=C2C=C[C@H](C)[C@H](CC[C@@H](O)C[C@@H](CC(=O)NO)OC(=O)c3ccc(OC(F)(F)F)cc3)[C@H]21 | Active | 4.69 | – |
| C[C@H]1C=C2C=C[C@H](C)[C@H](CC[C@@H](O)C[C@H](O)CC(=O)NO)[C@H]2[C@@H](O)C1 | Active | < 4.52 | – |
| CC[C@H](C)C(=O)O[C@H]1C[C@@H](C)C=C2C=C[C@H](C)[C@H](CC[C@@H](O)C[C@@H](CC(=O)NO)OC(=O)c3ccccc3)[C@H]21 | Active | 5.48 | pIC50 [3]: 4.40 to 4.52; Activity [4]: Active; Activity (MDA-MB-231 [5]): Dose-dependent effect; Activity [6]: Non-Toxic; Activity [7]: Active; Activity [8]: Active; pIC50 [9]: 4.40 to 4.52; Activity [10]: Active; Activity (MDA-MB-231 [11]): Active; Activity [12]: Active; Activity [13]: Active; Activity (MDA-MB-231 [14]): Active; pIC50 [15]: 4.40 to 4.52 |
| CC[C@H](C)C(=O)O[C@H]1C[C@@H](C)C=C2C=C[C@H](C)[C@H](CC[C@@H](O)C[C@@H](CC(=O)NO)OC(=O)C(C)(C)C)[C@H]21 | Active | 5.14 | – |
| CC[C@H](C)C(=O)O[C@H]1C[C@@H](C)C=C2C=C[C@H](C)[C@H](CC[C@@H](O)C[C@@H](CC(=O)NO)OC(C)=O)[C@H]21 | Active | 4.94 | – |
| CC[C@H](C)C(=O)O[C@H]1C[C@@H](C)C=C2C=C[C@H](C)[C@H](CC[C@@H](O)C[C@@H](CC(=O)NO)OC(=O)Cc3ccccc3)[C@H]21 | Active | 5.24 | – |
| CC[C@H](C)C(=O)O[C@H]1C[C@@H](C)C=C2C=C[C@H](C)[C@H](CC[C@@H]3C[C@@H](O)CC(=O)O3)[C@H]21 [LOVASTATIN] | – | 5.27 | Activity [16]: Active; pIC50 [3]: < 4.40; Activity [4]: Active; pIC50 [9]: < 4.40; Activity [13]: Active; pIC50 [15]: < 4.40 |
| CC[C@H](C)C(=O)O[C@H]1C[C@@H](C)C=C2C=C[C@H](C)[C@H](CC[C@@H](O)C[C@@H](CC(=O)NO)OC(=O)CCc3ccccc3)[C@H]21 | Active | 5.21 | – |
